tested on: GUMC-403; experiment: viability at highest tested concentration (max response) relative to DMSO (% of DMSO control); higher = less cytotoxic; conditions: library / dose series: MIPE library, 11-point 1:3 dilution; top concentration 46.1 µM; 48 h
Summary of the method: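 GUMC-403 papilloma cells, derived from a patient and expanded by conditional reprogramming, were dispensed at 700/well into 1536-well plates in 5 μL F + Y medium. A pin tool delivered 23 nL of each compound across an 11-point 1:3 dilution series for 48 h. CellTiter-Glo luminescence, read on a ViewLux, was normalised so that vehicle wells equalled 100% and empty wells 0%. Values report viability at the highest tested concentration relative to vehicle control.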

| SMILES | viability |
| --- | --- |
| CN(C)[C@H]\1[C@@H]2[C@@H](O)[C@@H]\3C(=C)C4=C(C(=CC=C4)O)C(=O)C3=C(\O)[C@@]2(O)C(=O)\C(=C1O)C(N)=O | 96.5 |
| CC(C)(C#N)c1cc(Cn2cncn2)cc(C(C)(C)C#N)c1 | 116 |
| CCN(C)C(=O)Oc1cccc([C@H](C)N(C)C)c1 | 125 |
| CC(C)NCC(O)c1ccc(NS(C)(=O)=O)cc1 (stereo not given) | 123 |
| Clc1cccc(-c2nnnn2Cc2cccnc2)c1Cl | 113 |
| CC(=O)N(C)C1(c2ccccc2)CCN(CCC[C@]2(c3ccc(Cl)c(Cl)c3)CCCN(C(=O)c3ccccc3)C2)CC1 | 96.7 |
| C=C[C@H]1CN2CCC1C[C@@H]2C(O)c1ccnc2ccc(OC)cc12 (stereo not given in full) | 101 |
| C[C@@H](Oc1cc(-n2cnc3ccc(CN4CCN(C)CC4)cc32)sc1C(N)=O)c1ccccc1C(F)(F)F | 47.4 |
| CCN1\C=C(\C(O)=O)C(=O)C2=C1C=C(N3CCNCC3)C(=C2)F | 121 |
| O=C(Nc1ccncc1)C(=O)c1cn(Cc2ccc(Cl)cc2)c2ccccc12 | 112 |
| c1ccc2c(-c3cnn4cc(-c5ccc(N6CCNCC6)cc5)cnc34)ccnc2c1 | 2.71 |
| C[C@H]1[C@H](O)O[C@@H]2O[C@@]3(C)CC[C@H]4[C@H](C)CC[C@@H]1[C@@]24OO3 | 90.6 |
| C=CC[C@@H]1/C=C(\C)C[C@H](C)C[C@H](OC)[C@H]2O[C@@](O)(C(=O)C(=O)N3CCCC[C@H]3C(=O)O[C@H](/C(C)=C/[C@@H]3CC[C@@H](O)[C@H](OC)C3)[C@H](C)[C@@H](O)CC1=O)[C@H](C)C[C@@H]2OC | 126 |
| OC[C@H]1OCC(O1)[N@@]2C=CC(N)=NC2=O (stereo not given in full) | 114 |
| c1ccc(CNc2nc(NCc3ccccc3)c3ccccc3n2)cc1 | 51.8 |
| CN1CC(=O)N2[C@H](c3ccc4c(c3)OCO4)c3[nH]c4ccccc4c3C[C@@H]2C1=O | 91.5 |
| CC(C)n1nc(-c2ccc3oc(N)nc3c2)c2c(N)ncnc21 | 29.8 |
| Cc1cc(C(C)(C)C)c(O)c(C)c1CC1=NCCN1 | 120 |
| NC[C@H](O)c1ccc(O)c(O)c1 | 113 |
| CC1=CC=C2\N=C/3N(CC[C@@]3(O)C(=O)C2=C1)C4=CC=CC=C4 | 104 |
| O=C(NC[C@H](O)CO)c1ccncc1Nc1ccc(I)cc1F | 72.6 |
| COc1cc(Nc2ncc(F)c(Nc3ccc4c(n3)NC(=O)C(C)(C)O4)n2)cc(OC)c1OC | 89.6 |

| SMILES | viability |
| --- | --- |
| Cc1c(C(=O)Nc2cccc(C(F)(F)F)c2)cc(-c2ccccc2)n1CCCN1CCOCC1 | 98.9 |
| COc1ccc(/C=C/C(=O)Nc2ccccc2C(=O)O)cc1OC | 106 |
| O=C1CCC(N2C(=O)c3ccccc3C2=O)C(=O)N1 (stereo not given) | 92 |
| CC(C)(C)/[N+]([O-])=C/c1ccc([S+](=O)([O-])[O][Na])cc1[S+](=O)([O-])[O][Na] | 84.5 |
| CN1\C(=C(\O)C2=C(C=CC=C2)[S+]1([O-])=O)C(=O)NC3=CC=CC=N3 | 99 |
| CCNc1cc(NC2CCC(O)CC2)nc(Nc2ccc3c(ccn3Cc3ccccc3)c2)n1 (stereo not given) | 99.8 |
| CC1(C)CNc2cc(NC(=O)c3cccnc3NCc3ccncc3)ccc21 | 117 |
| Nc1ccccc1NC(=O)c1ccc(CNC(=O)OCc2cccnc2)cc1 | 110 |
| CC[S+](=O)([O-])N1CC(CC#N)(n2cc(-c3ncnc4[nH]ccc34)cn2)C1 | 144 |
| CN(c1nccc(=O)[nH]1)C1CCN(c2nc3ccccc3n2Cc2ccc(F)cc2)CC1 | 97.4 |
| CN(C)CC/C=C1/c2ccccc2COc2ccc(CC(=O)O)cc21 | 100 |
| O=C(/C=C/c1c(C(=O)[O-])[nH]c2cc(Cl)cc(Cl)c12)Nc1ccccc1 | 111 |
| CC[C@@H](C(N)=O)N1CCCC1=O | 6.2 |
| CN(C1CCc2c(c3ccccc3n2CC(=O)O)C1)[S+](=O)([O-])c1ccc(F)cc1 (stereo not given) | 114 |
| CCCN[S+](=O)([O-])Nc1ncnc(OCCOc2ncc(Br)cn2)c1-c1ccc(Br)cc1 | 122 |
| Cl.Nc1ccn([C@@H]2O[C@H](CO)[C@@H](O)C2(F)F)c(=O)n1 | 107 |
| COC1=CC=CC2=C1C(=NC(=N2)C3=CC=CS3)NN4C(=O)\C=C(C)/C4=O | 80 |
| Cc1ncc([N+](=O)[O-])n1CCO | 106 |
| NCC1CCC(C(=O)O)CC1 (stereo not given) | 115 |
| NC(=O)c1cccc(N)c1 | 109 |
| C[C@@H](O)[C@@H]1NC(=O)[C@H](CCCCN)NC(=O)[C@@H](Cc2c[nH]c3ccccc23)NC(=O)[C@H](Cc2ccccc2)NC(=O)[C@@H](NC(=O)[C@H](N)Cc2ccccc2)CSSC[C@@H](C(=O)N[C@H](CO)[C@@H](C)O)NC1=O | 89.7 |
| O=C(CCCN1CCC(O)(c2ccc(Cl)cc2)CC1)c1ccc(F)cc1 | 105 |

| SMILES | viability |
| --- | --- |
| Cc1nc(C(=O)NCC(=O)O)c(O)c2ccc(Oc3ccccc3)cc12 | 132 |
| CN1\C=N/C2=CC=C(NC3=CC(=CC=C3C)NC(=O)C4=CC(=CC=C4)C(C)(C)C#N)C=C2C1=O | 96.2 |
| OC(=O)CNC(=O)\C1=C(/O)C2=CC=CC=C2N(CC3=CC=CC=C3)C1=O | 108 |
| C[C@]12CC[C@H]3[C@@H](CCC/4=C/C(=O)CC[C@]34C)[C@@H]1CC[C@@H]2OC(=O)CCC5CCCC5 | 102 |
| Cc1ccc(C(=O)Nc2cccc(C(F)(F)F)c2)cc1-c1ccc2nc(NCCN3CCOCC3)ncc2c1 | 55.5 |
| CCN(CCO)CCCC(C)Nc1ccnc2cc(Cl)ccc12 (stereo not given) | 116 |
| Cn1cc(-c2ccc3ncc(Cc4ccc5ncccc5c4)n3n2)cn1 | 123 |
| CCc1cc2c(cc1N1CCC(N3CCOCC3)CC1)C(C)(C)c1[nH]c3cc(C#N)ccc3c1C2=O | 97.8 |
| CN1C2CCC1CC(OC(=O)C(CO)c1ccccc1)C2 (stereo not given) | 109 |
| N[C@@H](CC(=O)N1CCn2c(nnc2C(F)(F)F)C1)Cc1cc(F)c(F)cc1F | 97.9 |
| CN(C)C(=O)[C@H](O)[C@H](Cc1ccccc1)NC(=O)c1cc2cc(Cl)ccc2[nH]1 | 114 |
| C[C@H]1C[C@@H]2[C@H](CC[C@@]3(C)[C@H]2CC[C@]3(OC(C)=O)C(C)=O)[C@@]\4(C)CCC(=O)\C=C14 | 147 |
| OCCn1cc(-c2ccc3c(c2)CC/C3=N\O)c(-c2ccncc2)n1 | 94.5 |
| Nc1nc(N)nc(-c2cc(Cl)ccc2Cl)n1.O=C(O)/C=C\C(=O)O | 112 |
| CC(=O)OCC(=O)[C@@]12\N=C(C)/O[C@@H]1C[C@H]3[C@@H]4CCC/5=C/C(=O)/C=C\[C@]5(C)[C@H]4[C@@H](O)C[C@]23C | 112 |
| CCCCOc1ccc(C(=O)Nc2ccc(F)cc2F)cc1 | 101 |
| COc1c(O)cc2c(c1O)[C@@H]1O[C@H](CO)[C@@H](O)[C@H](O)[C@H]1OC2=O | 110 |
| CCN(CC)CCN1C(=O)\C(=N/C2=CC=CC=C12)CC3=CC=C(OC)C=C3 | 129 |
| COc1ccc2c(c1)CN(C)CC2c1ccc(Cl)c(Cl)c1 (stereo not given) | 129 |
| CCN(CC)C(=O)C1=CC=C(C=C1)C/2=C/C3(CCNCC3)OC4=CC=CC(=C24)O | 125 |
| NC[C@@H]1O[C@H](O[C@H]2[C@@H](O)[C@H](O[C@@H]3[C@@H](O)[C@H](N)C[C@H](N)[C@H]3O[C@H]3O[C@H](CN)[C@@H](O)[C@H](O)[C@H]3N)O[C@@H]2CO)[C@H](N)[C@@H](O)[C@@H]1O.O=S(=O)(O)O.O=S(=O)(O)O.O=S(=O)(O)O | 119 |
| C[C@H](O)[C@H]1[C@@H]2[C@H](C)C(=C(\N2C1=O)C(O)=O)/S[C@@H]3CN[C@H](CN[S+](N)([O-])=O)C3 | 120 |

| SMILES | viability |
| --- | --- |
| CC[C@]12CC[C@H]3[C@@H](CCC/4=C/C(=O)CC[C@H]34)[C@@H]1CC[C@@]2(O)C#C | 93.2 |
| C=C1/C(=C/C=C2\CCCC3(C)[C@@H]([C@H](C)/C=C/C=C/C(O)(CC)CC)CC[C@@H]23)C[C@@H](O)C[C@@H]1O (stereo not given in full) | 148 |
| CNC(=O)c1cc(Oc2ccc(NC(=O)Nc3ccc(Cl)c(C(F)(F)F)c3)c(F)c2)ccn1 | 101 |
| Oc1ccc(OCc2ccccc2)cc1 | 110 |
| CCOc1cc(N2CCC(O)CC2)ccc1Nc1ncc2c(n1)N(C)c1ccccc1C(=O)N2C | 89.8 |
| Cc1ncc([N+](=O)[O-])n1CC(C)O (stereo not given) | 110 |
| CCOC(=O)N[C@@H]1CC[C@@H]2[C@@H](C1)C[C@H]1C(=O)O[C@H](C)[C@H]1[C@H]2/C=C/c1ccc(-c2cccc(F)c2)cn1 | 123 |
| OCCN(CCO)c1nc(N2CCCCC2)c2nc(N(CCO)CCO)nc(N3CCCCC3)c2n1 | 77 |
| Clc1ccc(C(Cn2ccnc2)OCc2c(Cl)cccc2Cl)c(Cl)c1 (stereo not given) | 113 |
| CC(C)(C)NC(=O)[C@@H]1CN(Cc2cccnc2)CCN1C[C@@H](O)C[C@@H](Cc1ccccc1)C(=O)N[C@H]1c2ccccc2C[C@H]1O.O=S(=O)(O)O | 130 |
| NC1=C(Cl)C(=CC=N1)OC2=C(F)C=C(NC(=O)\C3=C\N\C=C(C3=O)\C4=CC=C(F)C=C4)C=C2 | 108 |
| Cc1cc(NC(=O)Nc2ccc(N(C)C)cc2)c2cc(F)cc(F)c2n1 | 124 |
| C1CCC(C(CC2CCCCN2)C2CCCCC2)CC1 (stereo not given) | 85.1 |
| CCCC1=N[N](C)C2=C1\N=C(/NC2=O)C3=CC(=CC=C3OCC)[S+]([O-])(=O)N4CCN(C)CC4 | 74.6 |
| Cn1cnc(N)c2ncnc1-2 | 82.9 |
| Cc1cn[nH]c1 | 126 |
| C[C@](N)(Cc1ccc(O)c(O)c1)C(=O)O | 89.6 |
| CC1(C)[C@H](C(=O)O)N2C(=O)C[C@H]2[S+]1(=O)[O-] | 106 |
| CC(C)NCC(O)COc1ccc(COCCOC(C)C)cc1 (stereo not given) | 117 |

— the supplement of paper PMC6723410
